Assay results reported in article PMC8588048, “Discovery of Guanidine Derivatives from Buthus martensii Karsch with Metal-Binding and Cholinesterase Inhibition Properties” (Molecules, 2021).
Entries after “also recorded” stand apart in the source; their conditions may differ. Like-named read-outs stand apart in the source and are kept apart here.

Experiments:
[1] = target: T1, AChE (EC 3.1.1.7, from electric eel) (Electrophorus electricus, UniProt O42275); assay: biochemical; type: biochemical; conditions: for SI for AChE = IC50 BChE/IC50 AChE: selectivity index for AChE over BChE
T1 construct: purchased Sigma-Aldrich (St. Louis, MO, USA)
T1 sequence (O42275 24-633): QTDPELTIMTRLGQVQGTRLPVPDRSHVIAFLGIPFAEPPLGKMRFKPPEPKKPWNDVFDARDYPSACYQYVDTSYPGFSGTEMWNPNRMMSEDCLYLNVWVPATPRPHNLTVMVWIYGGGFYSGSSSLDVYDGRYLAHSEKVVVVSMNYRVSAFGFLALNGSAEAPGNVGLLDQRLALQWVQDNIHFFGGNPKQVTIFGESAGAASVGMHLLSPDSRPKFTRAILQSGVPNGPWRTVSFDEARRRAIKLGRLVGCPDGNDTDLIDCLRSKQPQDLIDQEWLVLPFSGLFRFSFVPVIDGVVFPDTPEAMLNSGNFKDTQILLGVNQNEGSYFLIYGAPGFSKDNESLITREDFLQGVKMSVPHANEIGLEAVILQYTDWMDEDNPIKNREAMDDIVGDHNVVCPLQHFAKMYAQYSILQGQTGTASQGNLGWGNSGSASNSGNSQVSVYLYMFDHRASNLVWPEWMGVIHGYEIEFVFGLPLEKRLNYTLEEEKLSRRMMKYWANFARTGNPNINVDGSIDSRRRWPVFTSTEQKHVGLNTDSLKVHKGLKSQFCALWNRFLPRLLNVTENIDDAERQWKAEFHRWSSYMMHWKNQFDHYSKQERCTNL
Method: (§1) A Waters Acquity UPLC Class I/Xevo G2Q-Tof mass spectrometer (Milford, MA, USA) was used to obtain the high-resolution ESI-MS (HR-ESI-MS) data. ^1H and ^13C NMR spectra were acquired on a Bruker Avance III 400 spectrometer spectrometer (Karlsruhe, Germany) with TMS as an internal standard. ^1H-^1H DQF-COSY, NOESY, TOCSY, HSQC and HMBC spectra were recorded using standard Bruker programs spectrometer (Topspin 3.5pl6, Karlsruhe, Germany). […] Thin layer chromatography (TLC) analysis was performed on alumina plates coated with silica gel 60 and silica gel 60 RP-18 F254 (Merck) spectrometer (Darmstadt, Germany). Chromatographic separation was performed on self-packed columns with silica gel (Anhui Liangchen Silicon Material Co. Ltd., China) and reversed-phase silica gel (ODS-A 12 nm S-50 μm YMC Co., Kyoto, Japan). AChE (EC 3.1.1.7, from electric eel), BChE (EC 3.1.1.8, from equine serum), 5,5′-dithiobis(2-nitrobenzoic acid) (DTNB), acetylthiocholine iodide (ATCI), and butyrylthiocholine iodide (BTCI) were purchased from Sigma-Aldrich (St. Louis, MO, USA).
(§2) AChE (EC 3.1.1.7, from electric eel) and BChE (EC 3.1.1.8, from equine serum) were purchased from Sigma-Aldrich (St. Louis, MO, USA). […] After reaction for 15 min at 25 °C, 10 μL of 10 mM DTNB and 10 μL of 7.5 mM ATCI (BTCI) were added and then incubated for 40 min at 37 °C. […] Blank groups were set up by replacing the sample solution with 20 μL phosphate buffer (Ac). All tests were performed in triplicate.

[2] = target: T2, BChE (EC 3.1.1.8, from equine serum) (Equus caballus, UniProt P81908); assay: biochemical
T2 construct: purchased Sigma-Aldrich (St. Louis, MO, USA); host or cells: equine serum
T2 sequence (P81908 whole entry): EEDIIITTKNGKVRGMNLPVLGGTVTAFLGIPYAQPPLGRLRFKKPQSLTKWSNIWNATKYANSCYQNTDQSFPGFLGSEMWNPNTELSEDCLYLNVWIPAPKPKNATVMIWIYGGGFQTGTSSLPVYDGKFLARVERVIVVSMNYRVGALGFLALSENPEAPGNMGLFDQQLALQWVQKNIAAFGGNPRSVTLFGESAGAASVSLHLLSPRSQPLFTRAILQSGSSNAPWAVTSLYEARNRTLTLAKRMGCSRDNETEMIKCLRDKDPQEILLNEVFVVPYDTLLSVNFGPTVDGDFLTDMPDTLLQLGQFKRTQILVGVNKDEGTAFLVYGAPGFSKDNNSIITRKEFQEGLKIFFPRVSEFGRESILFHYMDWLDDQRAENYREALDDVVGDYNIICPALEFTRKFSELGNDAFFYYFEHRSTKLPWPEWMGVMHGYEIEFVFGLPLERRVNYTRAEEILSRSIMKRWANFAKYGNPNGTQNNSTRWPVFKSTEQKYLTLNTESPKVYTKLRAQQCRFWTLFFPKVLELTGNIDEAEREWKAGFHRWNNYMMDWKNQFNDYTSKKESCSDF
Method: as §1, §2

[3] = target: T3, peripheral anionic site (PAS) of AChE (Electrophorus electricus, UniProt O42275); type: binding; conditions: test compounds 100 μM, propidium iodide 1 μM, AChE 5U
T3 construct: purchased Sigma-Aldrich (St. Louis, MO, USA)
T3 sequence (O42275 24-633): as the sequence (O42275 24-633) above
Method: The assay mixture of AChE (5U) was incubated with test compounds (final concentration 100 μM, 150 μL) for 6 h at 25 °C. After reaction, 50 μL Propidium iodide (1 μM) was added. […] The percentage of displacement was calculated by the following expression: 100 − (IFi/IF0 × 100), where IFi and IF0 are the fluorescence intensities with and without the test compounds, respectively.

AChE = target: T4, AChE (Electrophorus electricus, UniProt O42275); assay: Enzyme kinetic analysis against AChE; type: biochemical; conditions: for Ki: Dixon and Cornish–Bowden plots; for type of AChE inhibition: Lineweaver–Burk plots, ATCI 3.75–15.00 mM; for reversibility of AChE inhibition: initial velocity versus enzyme concentration, AChE 0.025–0.10 U/mL
T4 construct: purchased Sigma-Aldrich (St. Louis, MO, USA)
T4 sequence (O42275 24-633): as above
Method: […]. Inhibition constants for AChE were determined from Dixon plot (1/Vi vs. (I)) and Cornish–Bowden transformation ((S)/Vi vs. (I)).

[4] = Metal-binding studies (UV spectra); type: physicochemical; conditions: UV 200–400 nm, compound 20 μM, CuCl2, FeCl2, ZnCl2, AlCl3 20 μM, methanol, 30 min
Method: The chelating studies were performed on an ultraviolet–visible spectrophotometry meter (HITACHI U-3900H, Tokyo, Japan). The UV absorption spectra of the test compound alone (20 μM, final concentration) or in the presence of CuCl2, FeCl2, ZnCl2 and AlCl3 (20 μM, final concentration) were recorded with the wavelength ranging from 200 to 400 nm after incubating for 30 min in methanol at room temperature.

[5] = means ± SD, at least three independent experiments, read-out: IC50 AChE
[6] = means ± SD, at least three independent experiments, read-out: IC50 BChE

SMILES | IC50 [1, 5] [µM] | SI for AChE = IC50 BChE/IC50 AChE [1] | IC50 [2, 6] [µM] | Propidium Iodide Displacement [3] [%] | Ki (AChE; read-out: inhibition constant Ki,c (competitive component)) [µM] | Ki (AChE; read-out: inhibition constant Ki,nc (non-competitive component)) [µM] | type of AChE inhibition (AChE) | reversibility of AChE inhibition (AChE) | reversibility of AChE inhibition (AChE; listed as Buthutin A) | metal binding ability toward Cu2+, Fe2+, Zn2+ and Al3+ [4] | IC50 [1] [µM] | IC50 AChE [1] | IC50 [2] [µM]
N=C(N)NCCCCNC(=O)c1ccc(O)cc1 [Compound 1, N-(4-guanidinobutyl)-4-hydroxybenzamide] | 7.83 ± 0.06 | 6.05 | 47.4 ± 0.95 | 18.29 ± 0.53 | 2.64 ± 0.35 | 5.66 ± 0.82 | mixed type of inhibition | reversible inhibitors | reversible | satisfactory biometal binding abilities; also recorded: potent metal binding ability; also recorded: satisfactory metal-binding properties | – | – | –
N=C(N)NCCCCNC(=O)c1ccccn1 [Compound 2, N-(4-guanidinobutyl)picolinamide] | 61.4 ± 2.34 | 1.99 | 123 ± 5.21 | 17.95 ± 0.98 | – | – | mixed type of inhibition | reversible inhibitors | – | – | – | – | –
C[n+]1cccc(C(=O)[O-])c1 [Compound 3] | – | – | – | – | – | – | – | – | – | satisfactory biometal binding abilities; also recorded: potent metal binding ability; also recorded: satisfactory metal-binding properties | 97.3 ± 4.18 | weaker inhibitory effect | 442 ± 7.99
CC(C)CCSS [Compound 4, 3-methylbuthyl hydrodisulfide] | 40.9 ± 3.21 | 3.73 | 153 ± 7.22 | – | – | – | – | – | – | – | – | – | –
